Biological target: T1, Human CXCR3 (N-delta 4) (Homo sapiens, UniProt P49682)
T1 construct: CD8 leader (N); Flag; expressed in transfected cells; membrane preparation
T1 sequence (P49682 5-368 limits assumed): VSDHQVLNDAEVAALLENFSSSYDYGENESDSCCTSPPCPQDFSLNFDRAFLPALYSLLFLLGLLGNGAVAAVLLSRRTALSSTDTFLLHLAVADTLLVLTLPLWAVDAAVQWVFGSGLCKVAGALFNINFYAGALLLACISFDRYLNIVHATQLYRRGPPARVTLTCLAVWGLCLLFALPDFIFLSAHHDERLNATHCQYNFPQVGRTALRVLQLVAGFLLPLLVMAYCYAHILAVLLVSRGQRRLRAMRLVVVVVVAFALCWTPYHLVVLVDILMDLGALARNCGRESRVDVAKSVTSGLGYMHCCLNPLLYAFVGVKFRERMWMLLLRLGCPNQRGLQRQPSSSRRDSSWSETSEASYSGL
Test: Human CXCR3 (N-delta 4) Scintillation Proximity Assay (SPA), [125I] IP-10 binding
Conditions: rating; 25 pM [125I] IP-10, Ba/F3-hCXCR3 (N-delta 4) membranes, 3 hr room temperature
Text: The inventive compounds can readily be evaluated to determine activity at The CXCR3 receptors by known methods, such as, for example, Development of Human CXCR3 (N-delta 4) Binding Assay.
Cloning and Expression of Human CXCR3 (N-delta 4):
The DNA encoding human CXCR3 was cloned by PCR using human genomic DNA (Promega, Madison, Wis.) as a template. The PCR primers were designed based on the published sequence of human orphan receptor GPR9 (1) with incorporated restriction sites, a Kozak consensus sequence, CD8 leader and Flag tag. The PCR product was subcloned into the mammalian expression vector pME18neo, a derivative of the SR-alpha expression vector (designated as pME18Sneo-hCXCR3 (N-delta 4).
IL-3-dependent mouse pro-B cells Ba/F3 were transfected by electroporation in 0.4 ml Dulbecco's PBS containing 4×10^6 cells with 20 μg of pME18Sneo-hCXCR3 (N-delta 4) plasmid DNA. Cells were pulsed at 400 Volts, 100 OHMs, 960 μFd. The transfected cells were under selection with 1 mg/ml G418 (Life Technologies, Gaithersburg, Md.). G418-resistant Ba/F3 clones were screened for CXCR3 expression by specific binding of [^125I] IP-10 (NEN Life Science Products, Boston, Mass.).
Preparation of Ba/F3-hCXCR3 (N-delta 4) Membranes
Ba/F3 cells expressing human CXCR3 (N-delta 4) were pelleted and resuspended in the lysis buffer containing 10 mM HEPES, pH 7.5 and Complete® protease inhibitors (1 tablet per 100 ml) (Boehringer Mannheim, Indianapolis, Ind.) at a cell density of 20×10^6 cells per ml. After 5 minutes incubation on ice, cells were transferred to 4639 cell disruption bomb (Parr Instrument, Moline, Ill.) and applied with 1,500 psi of nitrogen for 30 minutes on ice. Large cellular debris was removed by centrifugation at 1,000×g. Cell membrane in the supernatant was sedimented at 100,000×g. The membrane was resuspended in the lysis buffer supplemented with 10% sucrose and stored at −80° C. Total protein concentration of the membrane was determined by BCA method from Pierce (Rockford, Ill.).
Human CXCR3 (N-delta 4) Scintillation Proximity Assay (SPA)
For each assay point, 2 μg of membrane was preincubated for 1 hr with 300 μg wheat germ agglutinin (WGA) coated SPA beads (Amersham, Arlington Heights, Ill.) in the binding buffer (50 mM HEPES, 1 mM CaCl2, 5 mM MgCl2, 125 mM NaCl, 0.002% NaN3, 1.0% BSA) at room temperature. The beads were spun down, washed once, resuspended in the binding buffer and transferred to a 96-well Isoplate (Wallac, Gaithersburg, Md.). 25 pM of [^125I] IP-10 with tested compounds in a series of titration were added to start the reaction. After 3 hr reaction at room temperature, the amount of [^125I] IP-10 bound to the SPA beads was determined with a Wallac 1450 Microbeta counter.
The Ki values for the various example compounds of the present invention are given in the afore-mentioned Table 1. From these values, it would be apparent to the skilled artisan that the compounds of the invention have excellent utility CXCR3 antagonists.

Compound | Ki [nM]
CCNC(=O)c1ccc(N2CCN(C3CCN(Cc4ccc(Cl)cc4)CC3)[C@@H](CC)C2)c(C)n1 [Compound 1] | < 25
CC[C@H]1CN(c2ccc(C(=O)NC3CC3)nc2C)CCN1C1CCN(Cc2ccc(OC(F)(F)F)cc2)CC1 [Compound 2] | < 25
CC[C@H]1CN(c2ccc(C(N)=O)nc2C)CCN1C1CCN(Cc2ccc(Cl)cc2)CC1 [Compound 3] | < 25
CC[C@H]1CN(c2ccc(C(N)=O)nc2C)CCN1C1CCN(Cc2ccc(OC(F)(F)F)cc2)CC1 [Compound 4] | < 25
CC[C@H]1CN(c2ccc(C(=O)NC3CC3)nc2C)CCN1C1CCN(C(=O)c2ccc(Cl)c(F)c2)CC1 [Compound 5] | < 25
CC[C@H]1CN(c2ccc(C(=O)NC3CC3)nc2C)CCN1C1CCN(C(=O)c2ccc(Cl)cc2)CC1 [Compound 6] | < 25
CC[C@H]1CN(c2ccc(C(=O)NC3CC3)nc2Cl)[C@H](C)CN1C1CCN(C(=O)c2ccc(Cl)cc2)CC1 [Compound 7] | < 25
CC[C@H]1CN(c2ccc(C(=O)NC3CC3)nc2C)CCN1C1CCN(C(=O)c2ccc(F)c(F)c2)CC1 [Compound 8] | < 25
CC[C@H]1CN(c2ccc(C(=O)NC3CC3)nc2C)[C@H](C)CN1C1CCN(C(=O)c2ccc(Cl)c(F)c2)CC1 [Compound 9] | < 25
CC[C@H]1CN(c2ccc(C(N)=O)nc2C)CCN1C1CCN(C(=O)c2ccc(Cl)cc2)CC1 [Compound 10] | < 25
CC[C@H]1CN(c2ccc(C(=O)NC3CC3)nc2C(F)(F)F)[C@H](C)CN1C1CCN(C(=O)c2ccc(Cl)cc2)CC1 [Compound 11] | 25 to 100
CC[C@H]1CN(c2cnc(C#N)cc2C)CCN1C1CCN(C(=O)c2ccc(Cl)cc2)CC1 [Compound 12] | > 100
CC[C@H]1CN(c2ccc(CO)nc2C)CCN1C1CCN(C(=O)c2ccc(Cl)cc2)CC1 [Compound 13] | > 100
CC[C@H]1CN(c2cnc(C(N)=O)cc2C)CCN1C1CCN(C(=O)c2ccc(Cl)cc2)CC1 [Compound 14] | > 100

Source: US7902199B2, “Heterocyclic substituted piperazine compounds with CXCR3 antagonist activity” (Schering Corporation, priority 2006, dated 2011)
